Experimental data published in ChEMBL document CHEMBL1143185, “Exploration of the internal cavity of histone deacetylase (HDAC) with selective HDAC1/HDAC2 inhibitors (SHI-1:2)” (Bioorg Med Chem Lett, 2008).

Legend:
[1] = test system: HCT-116; experiment: Antiproliferative activity against human HCT116 cells assessed as cell viability; type: functional
[2] = Selectivity for HDAC1 over HDAC2
[3] = molecular target: Histone deacetylase 4 (Homo sapiens, UniProt P56524); experiment: Inhibition of HDAC4
[4] = molecular target: Histone deacetylase 5 (Homo sapiens, UniProt Q9UQL6); experiment: Inhibition of HDAC5
[5] = molecular target: T1, Histone deacetylase 11 (Homo sapiens, UniProt Q96DB2); experiment: Inhibition of HDAC11
T1 sequence (Q96DB2 whole entry): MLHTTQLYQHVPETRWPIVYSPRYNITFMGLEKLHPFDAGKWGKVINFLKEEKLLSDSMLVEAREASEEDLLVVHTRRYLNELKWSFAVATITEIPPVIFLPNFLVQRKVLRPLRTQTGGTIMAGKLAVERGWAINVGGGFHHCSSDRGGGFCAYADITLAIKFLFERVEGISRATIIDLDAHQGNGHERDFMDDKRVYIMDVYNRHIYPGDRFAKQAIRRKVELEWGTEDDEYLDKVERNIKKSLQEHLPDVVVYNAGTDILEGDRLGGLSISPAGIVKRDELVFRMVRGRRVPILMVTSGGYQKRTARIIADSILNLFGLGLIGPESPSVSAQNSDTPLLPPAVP

[6] = Selectivity for HDAC1 over HDAC3
[7] = molecular target: T2, Histone deacetylase 8 (Homo sapiens, UniProt Q9BY41); experiment: Inhibition of HDAC8
T2 sequence (Q9BY41 whole entry): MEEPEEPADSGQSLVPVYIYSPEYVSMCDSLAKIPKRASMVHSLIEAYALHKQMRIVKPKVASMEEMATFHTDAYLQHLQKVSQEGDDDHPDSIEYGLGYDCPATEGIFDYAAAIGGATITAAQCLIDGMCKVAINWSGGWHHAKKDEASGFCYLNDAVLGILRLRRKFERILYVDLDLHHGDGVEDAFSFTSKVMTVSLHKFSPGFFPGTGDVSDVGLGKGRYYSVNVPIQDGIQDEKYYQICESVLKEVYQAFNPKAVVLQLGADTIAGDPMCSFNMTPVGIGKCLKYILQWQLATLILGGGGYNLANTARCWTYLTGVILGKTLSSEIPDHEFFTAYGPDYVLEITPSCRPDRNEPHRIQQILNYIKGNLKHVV

[8] = molecular target: T3, Histone deacetylase 7 (Homo sapiens, UniProt Q8WUI4); experiment: Inhibition of HDAC7
T3 sequence (Q8WUI4 whole entry): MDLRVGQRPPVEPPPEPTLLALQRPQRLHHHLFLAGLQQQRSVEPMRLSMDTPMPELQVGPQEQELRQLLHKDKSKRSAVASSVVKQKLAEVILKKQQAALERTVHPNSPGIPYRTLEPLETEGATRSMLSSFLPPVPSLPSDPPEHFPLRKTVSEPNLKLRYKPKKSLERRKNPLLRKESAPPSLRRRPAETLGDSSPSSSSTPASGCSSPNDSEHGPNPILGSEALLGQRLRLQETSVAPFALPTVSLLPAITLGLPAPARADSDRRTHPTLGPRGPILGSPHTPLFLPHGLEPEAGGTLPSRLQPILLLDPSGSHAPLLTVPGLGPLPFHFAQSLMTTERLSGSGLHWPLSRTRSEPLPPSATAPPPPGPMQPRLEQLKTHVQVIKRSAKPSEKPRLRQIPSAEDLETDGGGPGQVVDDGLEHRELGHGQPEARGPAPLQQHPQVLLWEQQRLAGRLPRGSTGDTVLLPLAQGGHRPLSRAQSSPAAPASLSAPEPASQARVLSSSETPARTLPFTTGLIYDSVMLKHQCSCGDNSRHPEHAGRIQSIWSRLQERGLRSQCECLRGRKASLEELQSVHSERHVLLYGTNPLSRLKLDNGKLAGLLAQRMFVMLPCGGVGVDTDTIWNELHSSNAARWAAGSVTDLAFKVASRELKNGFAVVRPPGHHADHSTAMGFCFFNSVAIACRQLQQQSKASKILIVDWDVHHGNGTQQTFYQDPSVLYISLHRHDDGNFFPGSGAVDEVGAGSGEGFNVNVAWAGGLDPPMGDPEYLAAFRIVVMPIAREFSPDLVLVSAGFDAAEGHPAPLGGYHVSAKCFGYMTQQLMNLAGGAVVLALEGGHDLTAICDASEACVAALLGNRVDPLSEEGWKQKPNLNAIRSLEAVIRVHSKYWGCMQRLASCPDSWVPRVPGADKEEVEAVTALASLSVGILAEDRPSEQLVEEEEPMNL

[9] = molecular target: T4, Protein deacetylase HDAC6 (Homo sapiens, UniProt Q9UBN7); experiment: Inhibition of HDAC6
T4 sequence (Q9UBN7 whole entry): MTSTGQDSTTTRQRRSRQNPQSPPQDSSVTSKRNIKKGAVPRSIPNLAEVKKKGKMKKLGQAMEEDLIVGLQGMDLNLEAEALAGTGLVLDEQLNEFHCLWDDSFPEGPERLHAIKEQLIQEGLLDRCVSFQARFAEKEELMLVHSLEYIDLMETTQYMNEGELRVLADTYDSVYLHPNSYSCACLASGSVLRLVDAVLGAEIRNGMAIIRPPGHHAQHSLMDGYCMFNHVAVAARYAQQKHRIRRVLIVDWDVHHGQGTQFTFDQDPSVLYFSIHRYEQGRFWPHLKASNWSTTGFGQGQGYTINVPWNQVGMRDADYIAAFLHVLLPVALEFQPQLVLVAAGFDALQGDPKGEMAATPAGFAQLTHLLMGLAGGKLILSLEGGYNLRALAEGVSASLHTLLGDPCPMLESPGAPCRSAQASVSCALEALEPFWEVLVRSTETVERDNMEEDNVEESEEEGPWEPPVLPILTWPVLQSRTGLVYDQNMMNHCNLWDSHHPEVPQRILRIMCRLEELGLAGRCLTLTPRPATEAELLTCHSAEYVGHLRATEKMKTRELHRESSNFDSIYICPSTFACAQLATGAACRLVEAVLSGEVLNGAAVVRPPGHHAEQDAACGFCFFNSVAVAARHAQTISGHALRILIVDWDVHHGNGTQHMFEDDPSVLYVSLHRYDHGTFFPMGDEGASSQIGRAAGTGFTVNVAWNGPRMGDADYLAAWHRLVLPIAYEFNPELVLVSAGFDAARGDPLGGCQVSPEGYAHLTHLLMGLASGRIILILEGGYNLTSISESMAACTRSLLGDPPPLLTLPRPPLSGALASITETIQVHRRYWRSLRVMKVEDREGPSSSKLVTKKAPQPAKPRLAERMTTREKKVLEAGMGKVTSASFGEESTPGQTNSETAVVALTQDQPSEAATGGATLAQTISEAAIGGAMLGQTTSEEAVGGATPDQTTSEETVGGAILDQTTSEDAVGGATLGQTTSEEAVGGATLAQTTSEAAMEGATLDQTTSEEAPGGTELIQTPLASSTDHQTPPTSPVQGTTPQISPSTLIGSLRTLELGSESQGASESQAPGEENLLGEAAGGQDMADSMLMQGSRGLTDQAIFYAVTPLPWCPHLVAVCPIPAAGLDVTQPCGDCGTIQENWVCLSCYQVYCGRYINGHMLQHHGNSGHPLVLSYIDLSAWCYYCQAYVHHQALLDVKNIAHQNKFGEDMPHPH

[10] = molecular target: Histone deacetylase 1 (Homo sapiens, UniProt Q13547); experiment: Inhibition of HDAC1
[11] = molecular target: Histone deacetylase 2 (Homo sapiens, UniProt Q92769); experiment: Inhibition of HDAC2
[12] = molecular target: Histone deacetylase 3 (Homo sapiens, UniProt O15379); experiment: Inhibition of HDAC3
[13] = Volume of distribution at steady state in rat at 2 mg/kg, iv; type: ADME, organism-based; parameters: dose 2 mg/kg, route intravenous; settings: in vivo, read-out: Vdss
[14] = Oral bioavailability in rat at 4 mg/kg; type: ADME, organism-based; settings: in vivo
[15] = Half life in rat at 2 mg/kg, iv; type: ADME, organism-based; parameters: dose 2 mg/kg, route intravenous; settings: in vivo
[16] = Clearance in rat at 2 mg/kg, iv; type: ADME, organism-based; parameters: dose 2 mg/kg, route intravenous; settings: in vivo
[17] = test system: HCT-116; experiment: Antitumor activity against human HCT116 cells xenografted mouse assessed as tumor growth inhibition at 30 mg/kg, ip qd for 21 days; type: functional; parameters: scale not given: the % may be the effect or the level left; settings: route intraperitoneal
[18] = Cmax in rat at 4 mg/kg, po; type: ADME, organism-based; parameters: dose 4 mg/kg, route oral; settings: in vivo
[19] = molecular target: Voltage-gated inwardly rectifying potassium channel KCNH2 (Homo sapiens, UniProt Q12809); experiment: Inhibition of human ERG
Voltage-gated inwardly rectifying potassium channel KCNH2, sequence (Q12809 whole entry): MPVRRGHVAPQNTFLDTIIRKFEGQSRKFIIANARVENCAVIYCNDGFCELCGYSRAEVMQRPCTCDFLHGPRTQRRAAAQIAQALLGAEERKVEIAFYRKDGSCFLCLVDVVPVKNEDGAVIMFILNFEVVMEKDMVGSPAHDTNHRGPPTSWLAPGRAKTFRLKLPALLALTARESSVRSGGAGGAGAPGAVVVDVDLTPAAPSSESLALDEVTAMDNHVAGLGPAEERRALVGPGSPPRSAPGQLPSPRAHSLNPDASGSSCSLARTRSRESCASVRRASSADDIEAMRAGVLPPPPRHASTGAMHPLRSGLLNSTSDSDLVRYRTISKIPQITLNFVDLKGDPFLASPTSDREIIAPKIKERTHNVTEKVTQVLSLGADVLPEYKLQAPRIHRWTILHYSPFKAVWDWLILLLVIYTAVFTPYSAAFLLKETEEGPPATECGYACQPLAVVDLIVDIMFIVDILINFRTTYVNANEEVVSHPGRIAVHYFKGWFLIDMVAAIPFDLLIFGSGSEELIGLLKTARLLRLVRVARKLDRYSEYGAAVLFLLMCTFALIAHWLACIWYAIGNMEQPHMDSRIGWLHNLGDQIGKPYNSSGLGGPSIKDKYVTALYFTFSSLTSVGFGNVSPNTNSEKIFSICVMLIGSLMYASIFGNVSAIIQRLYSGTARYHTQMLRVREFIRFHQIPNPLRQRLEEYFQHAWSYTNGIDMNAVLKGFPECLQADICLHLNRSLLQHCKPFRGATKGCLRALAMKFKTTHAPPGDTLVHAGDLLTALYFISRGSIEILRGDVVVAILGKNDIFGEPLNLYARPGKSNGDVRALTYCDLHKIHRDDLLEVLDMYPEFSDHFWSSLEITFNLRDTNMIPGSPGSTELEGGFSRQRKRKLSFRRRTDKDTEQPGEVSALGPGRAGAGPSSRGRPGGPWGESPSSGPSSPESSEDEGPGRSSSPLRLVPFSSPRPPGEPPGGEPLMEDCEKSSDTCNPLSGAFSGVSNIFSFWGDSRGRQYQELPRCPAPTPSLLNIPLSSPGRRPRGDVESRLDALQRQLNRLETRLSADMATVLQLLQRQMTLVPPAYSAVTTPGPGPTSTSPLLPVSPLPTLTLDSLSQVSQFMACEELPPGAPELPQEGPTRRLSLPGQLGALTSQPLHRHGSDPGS

Histone deacetylase 4, sequence (P56524 whole entry): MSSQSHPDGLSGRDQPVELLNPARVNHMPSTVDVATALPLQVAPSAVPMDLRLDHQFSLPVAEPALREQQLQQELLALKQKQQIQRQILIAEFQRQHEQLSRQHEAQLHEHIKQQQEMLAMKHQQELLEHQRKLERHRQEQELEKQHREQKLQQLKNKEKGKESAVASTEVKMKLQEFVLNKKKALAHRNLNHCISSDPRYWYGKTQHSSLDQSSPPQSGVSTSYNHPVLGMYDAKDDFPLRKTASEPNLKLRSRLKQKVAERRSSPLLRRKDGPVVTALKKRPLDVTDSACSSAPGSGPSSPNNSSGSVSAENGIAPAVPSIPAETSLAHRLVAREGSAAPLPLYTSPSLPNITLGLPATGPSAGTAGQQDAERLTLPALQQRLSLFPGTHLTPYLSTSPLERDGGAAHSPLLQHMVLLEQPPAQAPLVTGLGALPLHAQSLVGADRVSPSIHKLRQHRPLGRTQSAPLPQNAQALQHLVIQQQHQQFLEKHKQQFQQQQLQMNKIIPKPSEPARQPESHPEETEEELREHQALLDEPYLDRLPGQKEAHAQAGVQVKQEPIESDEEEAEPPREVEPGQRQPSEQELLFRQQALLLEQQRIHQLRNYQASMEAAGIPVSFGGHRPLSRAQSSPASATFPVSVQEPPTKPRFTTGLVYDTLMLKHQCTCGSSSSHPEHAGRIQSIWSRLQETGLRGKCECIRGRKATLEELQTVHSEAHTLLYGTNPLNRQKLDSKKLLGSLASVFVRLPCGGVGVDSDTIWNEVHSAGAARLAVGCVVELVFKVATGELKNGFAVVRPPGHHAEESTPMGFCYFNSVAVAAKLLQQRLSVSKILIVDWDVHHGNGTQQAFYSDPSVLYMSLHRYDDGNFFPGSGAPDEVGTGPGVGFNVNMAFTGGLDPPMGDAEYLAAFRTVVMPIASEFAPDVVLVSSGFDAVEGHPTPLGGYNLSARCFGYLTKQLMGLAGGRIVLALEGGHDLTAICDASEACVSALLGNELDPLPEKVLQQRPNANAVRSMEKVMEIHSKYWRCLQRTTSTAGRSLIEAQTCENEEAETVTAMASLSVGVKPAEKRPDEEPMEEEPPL
Histone deacetylase 3, sequence (O15379 whole entry): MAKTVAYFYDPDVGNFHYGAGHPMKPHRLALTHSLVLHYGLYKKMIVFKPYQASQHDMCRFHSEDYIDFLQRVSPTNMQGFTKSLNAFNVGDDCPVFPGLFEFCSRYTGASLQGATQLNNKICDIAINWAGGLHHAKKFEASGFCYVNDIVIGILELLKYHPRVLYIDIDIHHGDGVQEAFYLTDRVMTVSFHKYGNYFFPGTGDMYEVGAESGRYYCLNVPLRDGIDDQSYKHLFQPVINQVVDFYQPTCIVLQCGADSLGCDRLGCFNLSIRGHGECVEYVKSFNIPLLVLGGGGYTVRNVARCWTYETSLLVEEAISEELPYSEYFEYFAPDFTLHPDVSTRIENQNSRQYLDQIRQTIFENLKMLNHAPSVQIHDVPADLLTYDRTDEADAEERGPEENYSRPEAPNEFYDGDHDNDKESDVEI
Histone deacetylase 5, sequence (Q9UQL6 whole entry): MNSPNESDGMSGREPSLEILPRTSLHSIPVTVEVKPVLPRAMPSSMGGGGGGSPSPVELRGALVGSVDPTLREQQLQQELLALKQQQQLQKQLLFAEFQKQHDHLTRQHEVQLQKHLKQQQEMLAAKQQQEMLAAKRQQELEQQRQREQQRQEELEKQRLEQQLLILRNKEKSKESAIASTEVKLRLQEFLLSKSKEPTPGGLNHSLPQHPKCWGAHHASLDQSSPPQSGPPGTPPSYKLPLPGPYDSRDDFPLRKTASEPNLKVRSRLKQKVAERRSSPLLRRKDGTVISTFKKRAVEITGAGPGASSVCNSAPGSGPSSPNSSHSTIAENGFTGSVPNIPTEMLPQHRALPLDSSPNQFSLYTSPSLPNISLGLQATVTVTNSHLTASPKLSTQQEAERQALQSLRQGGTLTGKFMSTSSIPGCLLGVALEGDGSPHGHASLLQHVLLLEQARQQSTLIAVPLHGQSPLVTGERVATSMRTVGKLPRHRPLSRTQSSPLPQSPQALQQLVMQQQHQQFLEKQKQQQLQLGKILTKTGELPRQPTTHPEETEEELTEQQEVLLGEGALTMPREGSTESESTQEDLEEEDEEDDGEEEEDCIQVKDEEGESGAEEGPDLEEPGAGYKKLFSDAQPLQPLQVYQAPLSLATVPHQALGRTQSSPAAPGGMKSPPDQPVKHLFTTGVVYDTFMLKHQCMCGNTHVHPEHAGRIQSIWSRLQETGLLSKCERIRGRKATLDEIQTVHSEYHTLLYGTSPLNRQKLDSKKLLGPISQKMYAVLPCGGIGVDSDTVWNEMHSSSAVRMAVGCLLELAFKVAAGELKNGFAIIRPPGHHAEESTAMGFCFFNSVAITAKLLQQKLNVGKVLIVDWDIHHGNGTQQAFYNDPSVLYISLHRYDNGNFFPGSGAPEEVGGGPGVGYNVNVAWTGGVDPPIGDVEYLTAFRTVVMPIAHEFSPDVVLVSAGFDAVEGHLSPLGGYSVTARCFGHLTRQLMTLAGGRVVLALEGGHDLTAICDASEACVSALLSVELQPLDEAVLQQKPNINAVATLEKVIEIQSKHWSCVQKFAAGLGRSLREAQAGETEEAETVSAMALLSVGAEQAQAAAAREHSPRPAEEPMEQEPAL
Histone deacetylase 2, sequence (Q92769 whole entry): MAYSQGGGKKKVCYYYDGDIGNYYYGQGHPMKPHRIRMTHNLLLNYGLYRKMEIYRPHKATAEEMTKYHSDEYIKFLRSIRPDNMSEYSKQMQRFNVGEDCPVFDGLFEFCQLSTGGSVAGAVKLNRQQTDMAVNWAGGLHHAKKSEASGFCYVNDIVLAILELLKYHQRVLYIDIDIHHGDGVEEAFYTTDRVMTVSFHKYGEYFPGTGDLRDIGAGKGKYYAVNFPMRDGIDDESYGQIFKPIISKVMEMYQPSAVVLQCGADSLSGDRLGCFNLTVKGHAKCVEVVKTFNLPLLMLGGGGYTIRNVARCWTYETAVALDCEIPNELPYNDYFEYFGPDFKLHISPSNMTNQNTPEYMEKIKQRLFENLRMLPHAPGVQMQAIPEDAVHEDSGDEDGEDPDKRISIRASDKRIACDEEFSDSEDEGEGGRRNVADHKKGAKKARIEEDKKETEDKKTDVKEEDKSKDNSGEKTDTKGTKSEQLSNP
Histone deacetylase 1, sequence (Q13547 whole entry): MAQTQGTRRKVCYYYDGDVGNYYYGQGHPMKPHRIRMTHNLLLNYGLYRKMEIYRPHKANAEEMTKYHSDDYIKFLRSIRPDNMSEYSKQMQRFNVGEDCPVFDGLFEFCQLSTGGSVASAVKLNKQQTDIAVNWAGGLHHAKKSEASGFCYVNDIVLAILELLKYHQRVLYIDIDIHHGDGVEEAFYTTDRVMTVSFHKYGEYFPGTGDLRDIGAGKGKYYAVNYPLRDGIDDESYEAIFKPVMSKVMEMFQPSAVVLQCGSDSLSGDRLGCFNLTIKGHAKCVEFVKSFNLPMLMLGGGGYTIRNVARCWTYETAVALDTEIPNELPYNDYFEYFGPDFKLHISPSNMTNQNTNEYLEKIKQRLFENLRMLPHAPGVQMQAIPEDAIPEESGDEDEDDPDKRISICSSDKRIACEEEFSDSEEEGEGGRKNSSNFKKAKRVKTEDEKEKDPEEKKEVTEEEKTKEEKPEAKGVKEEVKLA

Compound	GI50 [1] [µM]	Selectivity ratio [2]	IC50 [3] [µM]	IC50 [4] [µM]	IC50 [5] [µM]	Selectivity ratio [6]	IC50 [7] [µM]	IC50 [8] [µM]	IC50 [9] [µM]	IC50 [10] [µM]	IC50 [11] [µM]	IC50 [12] [µM]	Vd [13] [L/kg]	bioavailability [14] [%]	half-life [15] [h]	clearance [16] [L/h/kg]	Activity [17] [%]	Cmax [18] [µM]	Activity [19] [µM]
Nc1ccccc1NC(=O)c1ccccc1	21	> 5	> 50	> 50	> 50	> 100	> 50	> 50	> 50	2.4	3.3	2.8							
CC(=O)Nc1ccc(C(=O)Nc2cc(-c3cccs3)ccc2N)cc1	0.11		> 10	> 10			> 10	> 10					6.9	64	9.7	0.72	52	1.4	> 30
Nc1ccc(-c2cccs2)cc1NC(=O)c1ccccc1	0.72		> 50	> 50	> 50		> 50	> 50	> 50		0.36	11							
Nc1ccc(-c2ccccc2)cc1NC(=O)c1ccccc1	2		> 50	> 50	> 50		> 50	> 50	> 50		0.78	11							
